Publication PMC7662321, “Andrographolide and Its 14-Aryloxy Analogues Inhibit Zika and Dengue Virus Infection” (Molecules, 2020)
Read-outs that look alike come from different tables or passages of the source.

What was measured:
ZIKV = ZIKV viral production in A549 cells by standard plaque assay; assay type: cell-based, Zika virus; details: for ZIKV viral production, concentration dependence: A549, MOI 5, 1 to 100 µM; for Selective Index (SI): ZIKV, CC50 and EC50 in A549 cells; for EC50: Zika virus, A549 cells, MOI 5, 24 h treatment post-infection, plaque assay, read-out: EC50 against ZIKV infection
Procedure: To confirm the effects of andrographolide and the andrographolide analogues on ZIKV infection, A549 cells were infected with ZIKV at MOI of 5 for 2 h, and subsequently treated with the compounds at concentrations of 10 and 25 μM or with vehicle for 24 h. The cells were harvested for determination of the percentage of infection by flow cytometry, while the supernatants were collected for determination of viral titer by standard plaque assay.
(§1) Thus, the EC50 values of ZAD-1 and andrographolide were determined against ZIKV and DENV 2. For ZIKV, A549 cells were infected with ZIKV at MOI 5 and after 2 h of infection, the cells were incubated with ZAD-1 or andrographolide at a range of concentrations (1 to 100 µM) for 24 h, after which the supernatants were collected for determination of EC50 values by standard plaque assay. Both ZAD-1 and andrographolide reduced viral production in a dose-dependent manner (Figure 4A). […] For DENV 2, HEK293T/17 cells were infected with DENV 2 at MOI 5 for 2 h and followed by incubation with ZAD-1 or andrographolide at a range of concentrations (1 to 100 µM) for 24 h. […] The EC50 value for andrographolide in DENV infection is consistent with our previous study undertaken in HepG2 and HeLa cells with the same virus.
(§2) DENV 2 (strain 16681) and ZIKV (strain SV0010/15) virus stocks were propagated in C6/36 cells previously described, and virus titers were determined by standard plaque assay as described previously using Vero cells for ZIKV and LLC-MK2 cells for DENV.
(§3) HEK293T/17 or A549 cells were cultured in six-well plates under standard conditions until the cells reached 80% confluence. HEK293T/17 cells were infected with DENV 2, while A549 cells were infected with ZIKV Thai strain at MOI 5 for 2 h at 37 °C and 5% CO2 in culture medium without FBS. Mock infection was undertaken in parallel. After the infection period, the medium was removed and replaced with complete medium (including FBS) containing 0.1% DMSO (no treatment control) or the appropriate concentration of each compound and cells were again incubated under standard conditions. At 24 h post-treatment, cells were harvested for determination of effects of compounds on percentage of infection and supernatant was collected for determination of viral productivity. All experiments were undertaken independently in triplicate with duplicate plaque assay.

[1] = MTT cytotoxicity assay in BHK-21 cells; assay type: cell-based; details: hamster, BHK-21 cells (baby hamster kidney), 24 h post-treatment
Procedure: (§4) Cytotoxicity of each compound towards cells for four selected cell lines in the range of 1 to 500 µM was evaluated using the MTT (3-(4,5-dimethylthiazol-2-yl)-2,5-diphenyltetrazolium bromide) assay at 24 h post-treatment, in parallel with control and vehicle-treated cells (0.1% dimethyl sulfoxide (DMSO)). The 50% cytotoxic concentration (CC50) values calculated from the dose-response curve (Supplementary Figures S2–S5) are shown in Table 1. Overall, a range of cytotoxicities were seen from the four compounds across the […]. The most cytotoxic combination was ZAD-1 and BHK-21 cells, while the least cytotoxic combination was andrographolide and BHK-21 cells (Table 1).
(§5) A549 cells were cultured in ninety-six-well tissue culture plates under standard conditions until the cells reached 90% confluence. The cell culture medium was removed and then cells were incubated with various concentrations of andrographolide (1–100 μM) diluted in complete medium with FBS prior to being cultured for 24 h under standard conditions before analysis using either the Vybrant MTT Cell proliferation assay kit (V13154, Invitrogen) or the alamarBlue (Thermo Fischer Scientific, Waltham, MA, USA) assay kit according to the manufacturers recommendations. Values were determined from 8 (MTT assay) or 3 (alamarBlue) independent replicates. Negative controls (only media and media with 0.1% DMSO) and positive controls (5% DMSO) were included. To determine cell number, cell cultures were trypsinized by the addition of 0.25% Trypsin/0.1% ethylelediaminetetraacetic acid (EDTA) for 3 min and then cell suspensions were diluted with 0.4% trypan blue solution. Cells were counted using a hemocytometer. Cell morphology was additionally observed under an inverted microscope after 24 h treatment with various concentrations of each compound.
(§6) Figu re S2. Cytotoxicity of ZAD -1 (A), ZA D-2 (B), ZA D-3 (C), and andro grapholide (D) to BHK- 21 (baby hamster kidney) cells. BHK- 21 cells were incubated with various concentrations of each compound for 24 hrs followed by MTT cell viability assay. The experiment was undertaken independently in 4 replicates.
(§7) DMSO at the same concentrations was used as a control. 10% ethanol, PBS, and milli- Q water were used as a positive control of cell death. The bars show mean ± SD. […]

[2] = MTT cytotoxicity assay in A549 cells; assay type: cell-based; details: human, A549 cells (human lung carcinoma), 24 h post-treatment
Procedure: as §4, §5
as §6, with “S4.” for “S2.”, “A549 (human lung carcinoma)” for “BHK- 21 (baby hamster kidney)”, “A549” for “BHK- 21”
as §7

DENV 2 = DENV 2 viral production in HEK293T/17 cells by standard plaque assay; assay type: cell-based, dengue virus; details: for Selective Index (SI): DENV, CC50 and EC50 in HEK293T/17 cells; for EC50: Dengue virus, read-out: EC50 against DENV 2 infection; for DENV 2 viral production, concentration dependence: HEK293T/17, MOI 5, 1 to 100 µM
Procedure: The effects of the compounds on DENV-2 infection were evaluated using HEK293T/17 as host cells at MOI of 5. The cells were infected with DENV 2 for 2 h and then the cells were incubated with the compounds at non-cytotoxic (or morphology altering) concentrations of 10 and 25 μM of ZAD-1 and ZAD-3, or 25 and 50 μM of ZAD-2, or 50 and 75 μM of andrographolide or 0.1% DMSO vehicle control. After 24 h of treatment, cells were harvested for determination of the percentage of infection by flow cytometry, while the culture supernatants were collected to determine the viral production.
as §1, §2, §3

Compound | ZIKV viral production, concentration dependence (ZIKV; 24 h) | Selective Index (SI) (ZIKV) | EC50 (ZIKV) [µM] | CC50 at 24 h [1] [µM] | CC50 at 24 h [2] [µM] | Selective Index (SI) (DENV 2) | EC50 (DENV 2; HEK293T/17, 24 h) [µM] | DENV 2 viral production, concentration dependence (DENV 2; 24 h) | inhibitory effect on ZIKV infection, comparison among compounds (ZIKV; A549, MOI 5, 25 µM, 24 h) | EC50 (DENV 2; HEK293T/17 cells, MOI 5, 24 h treatment post-infection, plaque assay) [µM] | DENV 2 viral production, comparison among compounds (DENV 2; HEK293T/17, MOI 5, 25 µM, 24 h)
C=C1CC[C@@H]2[C@](C)(CO)[C@H](O)CC[C@@]2(C)[C@@H]1C/C=C1/C(=O)OC[C@H]1O [Andrographolide] | dose-dependent | 6.6 | 31.8 ± 3.5 | 600 ± 75 | 211 ± 32 | 8.4 | 35.2 ± 2.5 | dose-dependent reductions | – | – | –
C=C1CC[C@@H]2[C@]3(C)COC(C)(C)O[C@@H]3CC[C@@]2(C)[C@@H]1C/C=C1/C(=O)OC[C@@H]1Oc1c(Cl)cc(Cl)c2ccc(C)nc12 [ZAD-1] | dose-dependent | 9.8 | 27.9 ± 1.7 | 136 ± 6 | 273 ± 22 | 6.6 | – | dose-dependent reductions | greatest inhibitory effect | 22.6 ± 1.8 | greatest reduction
